What was measured:
[1] = biological target: Reverse transcriptase/RNase H (HIV-1); experiment: The 50% inhibitory concentration was measured as inhibition of RNA-dependent DNA polymerase activity
[2] = biological target: Reverse transcriptase/RNase H (HIV-1); experiment: The 50% inhibitory concentration was measured as inhibition of DNA-dependent DNA polymerase activity

Compound	IC50 [1]	IC50 [2]
CCCCCCCCCCCCCCCC(=O)Nc1c(O)cc(S(=O)(=O)O)c2ccccc12 [4-Hexadecanoylamino-3-hydroxy-naphthalene-1-sulfonic acid]	3.2 µM	–
O=S(=O)(O)c1ccc2c(OS(=O)(=O)c3cccc4c(S(=O)(=O)Oc5cc(S(=O)(=O)O)cc6cc(S(=O)(=O)O)ccc56)cccc34)cc(S(=O)(=O)O)cc2c1 [4-[5-(3,6-disulfo-1-naphthyloxysulfonyl)-1-naphthylsulfonyloxy]-2,7-naphthalenedisulfonic acid]	4.3 µM	91.3 µM
O=C(Oc1cc(S(=O)(=O)O)cc2cc(S(=O)(=O)O)ccc12)c1ccc(-c2ccc(C(=O)Oc3cc(S(=O)(=O)O)cc4cc(S(=O)(=O)O)ccc34)cc2)cc1 [Biphenyl-4,4'-dicarboxylic acid bis-(3,6-disulfo-naphthalen-1-yl) ester]	3.4 µM	6.9 µM
CCCCCCCCCCCCCCCC(=O)Nc1ccc(S(=O)(=O)O)c2cccc(S(=O)(=O)O)c12 [4-Hexadecanoylamino-naphthalene-1,5-disulfonic acid]	1.6 µM	6.7 µM
